{"source": "patent US9962350B2", "about": "“Agent for improving normal development rate of fertilized eggs” (SBI Pharmaceuticals Co., Ltd., priority 2014, dated 2018)", "tested_on": "C57BL/6J in vitro fertilized eggs", "assay": "Low-temperature in vitro culture of in vitro fertilization-derived fertilized eggs in KSOM or mWM with ALA; embryo development", "assay_type": "cell-based, mouse", "procedure": "5 U (units) of equine chorionic gonadotropin (serum gonadotropin) (ASKA Pharmaceutical Co., Ltd.) were intraperitoneally administered to each female mouse of the C57BL/6J lineage (3.9 weeks old to 4.0 weeks old). […], 5 U (units) of gonadotropin (human chorionic gonadotropin) (ASKA Pharmaceutical Co., Ltd.) were intraperitoneally administered thereto for controlled ovarian hyperstimulation. 15 hours after the administration of gonadotropin, the oviducts were recovered by opening the abdomens. In mineral oil, the ampullae of the oviducts were incised with a dissecting needle, and the ova were recovered into a drop of mHTF medium (ARK Resource Co., Ltd.). Sperms were recovered from the cauda epididymides of C57BL/6J male mice and cultured in mHTF medium at 37° C. for 40 minutes to 1 hour under 5% CO2 conditions for capacitation. 2 μl to 4 μl of the mHTF medium containing the sperms was added to the medium drop containing the recovered ova for insemination, and cultured at 37° C. under 5% CO2 conditions. 4 hours to 6 hours after the insemination, the fertilized eggs were washed with KSOM (ARK Resource Co., Ltd.) or mWM (ARK Resource Co., Ltd.) to remove cumulus cells and sperms. The fertilized eggs were temporarily cultured in KSOM or mWM in an incubator of 37° C. and 5% CO2 until all of the fertilized eggs were recovered.\n25 of the fertilized eggs per drop were transferred to a drop (covered with mineral oil (Sigma-Aldrich Corp.)) consisting of 100 μl of ALA-unsupplemented or ALA-supplemented (1 μM or 3 μM) medium (KSOM or mWM). Subsequently, the fertilized eggs were cultured under three conditions: a condition of 37° C. and 5% CO2, a condition of 35° C. and 5% CO2, and a condition of 35.5° C. and 5% CO2. The number of 2-cell eggs was counted 24 hours after the ovum recovery, and the number of blastocysts was counted 96 hours thereafter. Since the development of fertilized eggs obtained by in vitro fertilization is slightly slow, the number of blastocysts was also counted 120 hours after the ovum recovery. The development rate of embryos at each culture time was calculated on the basis of the number of 2-cell embryos 24 hours postfertilization defined as 100%. The results about KSOM are shown in Tables 14 and 15 and FIGS. 9 and 11. The results about mWM are shown in Tables 16 and 17 and FIGS. 10, 12, and 13."}
{"smiles": "NCC(=O)CCC(=O)O", "note": "[ALA, 5-aminolevulinic acid]", "values": [{"measurement": "The number of developed embryos in KSOM", "setting": "35° C., 1 μM ALA, 24 hr", "value": 61}, {"measurement": "The number of developed embryos in KSOM", "setting": "35° C., 1 μM ALA, 48 hr", "value": 27}, {"measurement": "development rate with the number of 2-cell embryos 24 hours postfertilization in KSOM defined as 100%", "setting": "35° C., 1 μM ALA, 48 hr", "value": 44, "unit": "%"}, {"measurement": "The number of developed embryos in KSOM", "setting": "35° C., 1 μM ALA, 72 hr", "value": 26}, {"measurement": "development rate with the number of 2-cell embryos 24 hours postfertilization in KSOM defined as 100%", "setting": "35° C., 1 μM ALA, 72 hr", "value": 43, "unit": "%"}, {"measurement": "The number of developed embryos in KSOM", "setting": "35° C., 1 μM ALA, 120 hr", "value": 22}, {"measurement": "development rate with the number of 2-cell embryos 24 hours postfertilization in KSOM defined as 100%", "setting": "35° C., 1 μM ALA, 120 hr (blastocysts)", "value": 36, "unit": "%"}, {"measurement": "The number of developed embryos in mWM", "setting": "35° C., 1 μM ALA, 24 hr", "value": 51}, {"measurement": "The number of developed embryos in mWM", "setting": "35° C., 1 μM ALA, 48 hr", "value": 55}, {"measurement": "development rate with the number of 2-cell embryos 24 hours postfertilization in mWM defined as 100%", "setting": "35° C., 1 μM ALA, 48 hr", "value": 108, "unit": "%"}, {"measurement": "The number of developed embryos in mWM", "setting": "35° C., 1 μM ALA, 72 hr", "value": 46}, {"measurement": "development rate with the number of 2-cell embryos 24 hours postfertilization in mWM defined as 100%", "setting": "35° C., 1 μM ALA, 72 hr", "value": 90, "unit": "%"}, {"measurement": "The number of developed embryos in mWM", "setting": "35° C., 1 μM ALA, 96 hr", "value": 29}, {"measurement": "development rate with the number of 2-cell embryos 24 hours postfertilization in mWM defined as 100%", "setting": "35° C., 1 μM ALA, 96 hr (blastocysts)", "value": 53, "unit": "%"}, {"measurement": "The number of developed embryos in KSOM", "setting": "35° C., 3 μM ALA, 24 hr", "value": 60}, {"measurement": "The number of developed embryos in KSOM", "setting": "35° C., 3 μM ALA, 48 hr", "value": 29}, {"measurement": "development rate with the number of 2-cell embryos 24 hours postfertilization in KSOM defined as 100%", "setting": "35° C., 3 μM ALA, 48 hr", "value": 48, "unit": "%"}, {"measurement": "The number of developed embryos in KSOM", "setting": "35° C., 3 μM ALA, 72 hr", "value": 27}, {"measurement": "development rate with the number of 2-cell embryos 24 hours postfertilization in KSOM defined as 100%", "setting": "35° C., 3 μM ALA, 72 hr", "value": 45, "unit": "%"}, {"measurement": "The number of developed embryos in KSOM", "setting": "35° C., 3 μM ALA, 120 hr", "value": 16}, {"measurement": "development rate with the number of 2-cell embryos 24 hours postfertilization in KSOM defined as 100%", "setting": "35° C., 3 μM ALA, 120 hr (blastocysts)", "value": 27, "unit": "%"}, {"measurement": "The number of developed embryos in mWM", "setting": "35° C., 3 μM ALA, 24 hr", "value": 52}, {"measurement": "The number of developed embryos in mWM", "setting": "35° C., 3 μM ALA, 48 hr", "value": 44}, {"measurement": "development rate with the number of 2-cell embryos 24 hours postfertilization in mWM defined as 100%", "setting": "35° C., 3 μM ALA, 48 hr", "value": 85, "unit": "%"}, {"measurement": "The number of developed embryos in mWM", "setting": "35° C., 3 μM ALA, 72 hr", "value": 27}, {"measurement": "development rate with the number of 2-cell embryos 24 hours postfertilization in mWM defined as 100%", "setting": "35° C., 3 μM ALA, 72 hr", "value": 52, "unit": "%"}, {"measurement": "The number of developed embryos in mWM", "setting": "35° C., 3 μM ALA, 96 hr", "value": 20}, {"measurement": "development rate with the number of 2-cell embryos 24 hours postfertilization in mWM defined as 100%", "setting": "35° C., 3 μM ALA, 96 hr (blastocysts)", "value": 38, "unit": "%"}, {"measurement": "The number of developed embryos in mWM", "setting": "35.5° C., 1 μM ALA, 24 hr", "value": 60}, {"measurement": "The number of developed embryos in mWM", "setting": "35.5° C., 1 μM ALA, 48 hr", "value": 60}, {"measurement": "development rate with the number of 2-cell embryos 24 hours postfertilization in mWM defined as 100%", "setting": "35.5° C., 1 μM ALA, 48 hr", "value": 100, "unit": "%"}, {"measurement": "The number of developed embryos in mWM", "setting": "35.5° C., 1 μM ALA, 72 hr", "value": 49}, {"measurement": "development rate with the number of 2-cell embryos 24 hours postfertilization in mWM defined as 100%", "setting": "35.5° C., 1 μM ALA, 72 hr", "value": 82, "unit": "%"}, {"measurement": "The number of developed embryos in mWM", "setting": "35.5° C., 1 μM ALA, 96 hr", "value": 42}, {"measurement": "development rate with the number of 2-cell embryos 24 hours postfertilization in mWM defined as 100%", "setting": "35.5° C., 1 μM ALA, 96 hr (blastocysts)", "value": 70, "unit": "%"}, {"measurement": "The number of developed embryos in mWM", "setting": "35.5° C., 3 μM ALA, 24 hr", "value": 52}, {"measurement": "The number of developed embryos in mWM", "setting": "35.5° C., 3 μM ALA, 48 hr", "value": 52}, {"measurement": "development rate with the number of 2-cell embryos 24 hours postfertilization in mWM defined as 100%", "setting": "35.5° C., 3 μM ALA, 48 hr", "value": 100, "unit": "%"}, {"measurement": "The number of developed embryos in mWM", "setting": "35.5° C., 3 μM ALA, 72 hr", "value": 46}, {"measurement": "development rate with the number of 2-cell embryos 24 hours postfertilization in mWM defined as 100%", "setting": "35.5° C., 3 μM ALA, 72 hr", "value": 88, "unit": "%"}, {"measurement": "The number of developed embryos in mWM", "setting": "35.5° C., 3 μM ALA, 96 hr", "value": 39}, {"measurement": "development rate with the number of 2-cell embryos 24 hours postfertilization in mWM defined as 100%", "setting": "35.5° C., 3 μM ALA, 96 hr (blastocysts)", "value": 75, "unit": "%"}]}
